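Exposure lasted 48 hours, with cells grown in 96-well plates and compounds tested at five concentrations. GI50 is the concentration that inhibits growth by half. Definition used: TGI = concentration required for complete inhibition of growth.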
Legend:
Assay in all cases: NCI anticancer screen, dose series, 48 h
[1] = test system: A498 renal
[2] = test system: DLD-1 colon
[3] = test system: EKVX NSCLC
[4] = test system: HL-60(TB) leukemia
[5] = test system: IGROV1 ovarian
[6] = test system: KM20L2 colon
[7] = test system: LXFL 529 NSCLC
[8] = test system: SF-295 CNS
[9] = test system: SK-MEL-5 melanoma
[10] = test system: UACC-257 melanoma

Compound | TGI [1] | TGI [2] | TGI [3] | TGI [4] | TGI [5] | TGI [6] | TGI [7] | TGI [8] | TGI [9] | TGI [10] | GI50 [3] | GI50 [4] | GI50 [5] | GI50 [8] | GI50 [9] | GI50 [10] | GI50 [1] | GI50 [2] | GI50 [6] | GI50 [7]
CCOc1ccccc1NC(=O)CCC(=O)OC | > 100 µM | > 100 µM | > 100 µM | > 78.8 µM | > 100 µM | > 100 µM | > 100 µM | > 100 µM | > 100 µM | > 100 µM |  |  |  |  |  |  |  |  |  | 
N#C/C(=C\c1ccccc1O)C(N)=O | > 100 µM | > 100 µM | > 100 µM | 43.3 µM | > 100 µM | > 100 µM | > 100 µM | > 100 µM | > 100 µM | > 100 µM |  |  |  |  |  |  |  |  |  | 
CN(C)c1ccc2c(c1)C(=O)N(OS(=O)(=O)c1ccc([N+](=O)[O-])cc1)C2=O | > 100 µM | 86.8 µM | > 100 µM | 76 µM | 43 µM |  | 37 µM | 62.7 µM | > 100 µM | 58.8 µM |  |  |  |  |  |  |  |  |  | 
Cc1ccc(C)c(NC(=O)C(=O)CC(=O)C2CCOC2=O)c1 (stereo not given) | > 100 µM | > 100 µM | > 100 µM | > 100 µM | > 100 µM | > 100 µM | > 100 µM | > 100 µM | > 100 µM | > 100 µM |  |  |  |  |  |  |  |  |  | 
Nc1nc(CCC(=O)Nc2cccc(C(F)(F)F)c2)cc(-c2cccc3ccccc23)n1 | > 100 µM | > 100 µM | > 100 µM | > 100 µM | > 100 µM | > 100 µM | > 100 µM | > 100 µM | > 100 µM | > 100 µM |  |  |  |  |  |  |  |  |  | 
Cc1cccc(C(=O)c2cccc3ccccc23)c1C(=O)O | > 100 µM | > 100 µM | > 100 µM |  | > 100 µM | > 100 µM | > 100 µM | > 100 µM | > 100 µM | > 100 µM |  |  |  |  |  |  |  |  |  | 
CC1=C(C(=O)NCc2ccccc2)C(c2ccc(C3C(C(=O)NCc4ccccc4)=C(C)NC(C)=C3C(=O)NCc3ccccc3)cc2)C(C(=O)NCc2ccccc2)=C(C)N1 | 31.7 µM | 13.1 µM | 28.9 µM | 44.7 µM | 37.8 µM | 29 µM | 15.5 µM | 38.2 µM | 30.9 µM | 32.5 µM |  |  |  |  |  |  |  |  |  | 
COC(=O)Cc1cc(OC)c(OC)cc1Br | > 100 µM | > 100 µM | > 100 µM | > 100 µM |  | > 100 µM | > 100 µM | > 100 µM |  | > 100 µM |  |  |  |  |  |  |  |  |  | 
O=C(O)c1ccccc1Cc1ccco1 | > 100 µM | > 100 µM | > 100 µM |  | > 100 µM | > 100 µM | > 100 µM | > 100 µM | > 100 µM | > 100 µM |  |  |  |  |  |  |  |  |  | 
O=C(CC1=Nc2nnc(-c3nnc4n3C(=O)C(CC(=O)c3cccnc3)=N4)n2C1=O)c1cccnc1 | > 100 µM | > 100 µM |  | > 100 µM | > 100 µM | > 100 µM | > 100 µM | > 100 µM | > 100 µM | > 100 µM |  |  |  |  |  |  |  |  |  | 
C#CCC[C@@H]1O[C@@]1(C)CC/C=C(\C)CC/C=C/C=O |  |  | > 100 µM | 60.8 µM | 49.6 µM | > 100 µM | 51.1 µM | 79.4 µM |  | 69.7 µM |  |  |  |  |  |  |  |  |  | 
CC1CC2C3CC(F)C4=CC(=O)C=CC4(C)C3(F)C(O)CC2(C)C1(O)C(=O)COC(=O)C(C)(C)C (stereo not given) |  | > 100 µM | > 100 µM | > 100 µM | > 100 µM | > 100 µM |  | > 100 µM | > 100 µM | > 100 µM |  |  |  |  |  |  |  |  |  | 
CC1=CCC[C@@]2(C)C(CC[C@@H]2C(C)/C=C/C(C)C)c2ccc(cc2C(=O)O)C[C@@H](O)CC1 (stereo not given in full) | 35.3 µM | 14 µM |  | 31.2 µM | 27.9 µM |  | 23.9 µM | 21.7 µM | 12.5 µM | 30.5 µM |  |  |  |  |  |  |  |  |  | 
O=C1c2ccccc2C2(O)Nc3cc(O)ccc3C12O (stereo not given) | > 100 µM | > 100 µM | > 100 µM | > 100 µM | > 100 µM | > 100 µM | > 100 µM | > 100 µM | > 100 µM |  |  |  |  |  |  |  |  |  |  | 
CCC(C)CN1C(=O)NC(C)(Cc2ccccc2)C1=O (stereo not given) |  | > 100 µM | > 100 µM | > 100 µM |  | > 100 µM | > 100 µM | > 100 µM | > 100 µM | > 100 µM |  |  |  |  |  |  |  |  |  | 
CC1=NN(C(=O)c2ccccc2O)C(=O)/C1=C/c1ccc([N+](=O)[O-])cc1 |  | > 100 µM | > 100 µM |  |  | > 100 µM | > 100 µM | > 100 µM | 51.5 µM | > 100 µM | 2680 nM | 1080 nM | 440 nM | 379 nM | 2210 nM | 2340 nM |  |  |  | 
Cc1ccc(C(=O)O/N=C2/CCCC/C2=C\c2ccccc2)cc1 |  | > 100 µM | > 100 µM | 45.1 µM | > 100 µM | > 100 µM | 30.9 µM | > 100 µM | > 100 µM | > 100 µM |  |  |  |  |  |  |  |  |  | 
COc1cc2c(cc1O)C=NCC2 | > 100 µM | > 100 µM | > 100 µM | > 100 µM | > 100 µM | > 100 µM | > 100 µM | > 100 µM | > 100 µM | > 100 µM |  |  |  |  |  |  |  |  |  | 
N#Cc1cccc(N2C(=O)c3c(c(-c4ccccc4)c(-c4ccc(Sc5ccc(-c6c(-c7ccccc7)c7c(c(-c8ccccc8)c6-c6ccccc6)C(=O)N(c6cccc(C#N)c6)C7=O)cc5)cc4)c(-c4ccccc4)c3-c3ccccc3)C2=O)c1 |  | > 100 µM | > 100 µM | > 100 µM | > 100 µM | > 100 µM | > 100 µM | > 100 µM | > 100 µM | > 100 µM |  |  |  |  |  |  |  |  |  | 
CCC[CH2][Sn]([CH2]CCC)([O]C(=O)c1c(F)cccc1F)[O]C(=O)c1c(F)cccc1F | 2.16 µM | 1.91 µM | 2.22 µM | > 100 µM | 3 µM | 2.98 µM | 0.318 µM | 2.9 µM | 2.52 µM | 1.99 µM | 1040 nM | 378 nM | 1390 nM | 1560 nM | 1240 nM | 671 nM | 967 nM | 624 nM | 1610 nM | 139 nM

From PubChem BioAssay (NCI)
